Structures are written as SMILES. Where two headings read alike, the source gives them in different places.

The term logP denotes the decadic logarithm of the partition coefficient of the neutral form, usually between octanol and water. High values mean higher lipophilicity, low ones lower lipophilicity.

The test system of data set [1] is Puccinia triticina. Briefly: Puccinia triticina-test (wheat)/preventive. The following applies: 500 ppm, preventive, evaluated 8 days after inoculation. Format: in vivo.
The subject of data set [2] is Sphaerotheca fuliginea. Briefly: Sphaerotheca test (cucumber)/preventive. Format: in vivo. The following applies: 500 ppm, preventive, evaluated 7 days after inoculation.
The subject of data set [3] is Alternaria solani. The data set can be described thus: Alternaria test (tomato)/preventive. The following applies: 500 ppm, preventive, evaluated 7 days after inoculation. Format: in vivo.
Data set [4] concerns Pyrenophora teres. The data set can be described thus: Pyrenophora teres-test (barley)/preventive. Format: in vivo. The following applies: 500 ppm, preventive, evaluated 8 days after inoculation.
In data set [5] the test system is Septoria tritici. The data set can be described thus: Septoria tritici-test (wheat)/preventive. Format: in vivo. The note with it: 500 ppm, preventive, evaluated 21 days after inoculation.
The nature of data set [6]: logP by HPLC on reversed-phase column (EEC Directive 79/831 Annex V.A8). The following applies: HPLC on reversed-phase column (C 18), EEC Directive 79/831 Annex V.A8.
Data set [7] concerns Uromyces appendiculatus. The note with it: 100 ppm, beans, preventive, evaluated 10 days after inoculation.
For data set [8], the system named is Botrytis cinerea. Briefly: Botrytis test (beans)/preventive. The note with it: 100 ppm, preventive, lesion size 2 days after inoculation.
For data set [9], the system named is Venturia inaequalis. The data set can be described thus: Venturia test (apples)/preventive. The following applies: 100 ppm, preventive, evaluated 10 days after inoculation.
Procedure: Venturia Test (Apples)/Preventive
Solvent: 24.5 parts by weight of acetone • 24.5 parts by weight of N,N-dimethylformamide
Emulsifier: 1 part by weight of alkylaryl polyglycol ether
After the spray coating has dried on, the plants are inoculated with an aqueous conidia suspension of the causal agent of apple scab (Venturia inaequalis) and then remain for 1 day in an incubation cabinet at approximately 20° C. and a relative atmospheric humidity of 100%.
The plants are then placed in a greenhouse at approximately 21° C. and a relative atmospheric humidity of approximately 90%.
The test is evaluated 10 days after the inoculation.
Data set [10] deals with Rhizoctonia solani. The data set can be described thus: Rhizoctonia test (rice)/protective. Format: in vivo. The following applies: 250 ppm, protective, evaluated 4 days after inoculation. As to the method: Rhizoctonia Test (Rice)/Protective
Solvent: 28.5 parts by weight of acetone
Emulsifier: 1.5 part by weight of alkylaryl polyglycol ether
1 day after the treatment, the plants are inoculated with hyphae of Rhizoctonia solani.
Evaluation is carried out 4 days after the inoculation.

For data set [11], the system named is Cochliobolus miyabeanus. The data set can be described thus: Cochliobolus test (rice)/protective. Format: in vivo. The following applies: 250 ppm, protective, evaluated 4 days after inoculation.
Data set [12] deals with Fusarium nivale (var. majus). The data set can be described thus: Fusarium nivale (var. majus)-test (wheat)/preventive. The note with it: for Efficacy: preventive, evaluated 5 days after inoculation.
Data set [13] relates to Pyricularia oryzae. Format: in vivo.
The test system of data set [14] is Phakopsora pachyrhizi. Briefly: Phakopsora test (soybeans)/protective. Format: in vivo. The note with it: 250 ppm, protective, evaluated 11 days after inoculation.

Regarding `CC(C)CC(C)c1ccccc1NC(=O)c1c(C(F)F)nn(C)c1F` (centres unmarked) [Example 11], the Efficacy in [1] is reported as 100%; in data set [2], 100%; in data set [3], 100%; in data set [4], 100%; in data set [5], 89%; in data set [7], 100%. The Efficacy in data set [8] was found to be 95%; in data set [9], 100%; in data set [10], 100%. In data set [6], this compound gave a logP of 3.85.

For `Cn1nc(C(F)F)c(C(=O)Nc2ccccc2-c2cc(F)c(F)c(F)c2)c1Cl` [Example 105], the Efficacy in [1] was 100%; in [4], 100%; in data set [7] (listed as 105 from this invention), 100%; in data set [11], 95%; in data set [8], 100%; in [12] (500 ppm), 100%. Further, the Efficacy in [9] and in data set [10] was 100% each time. The logP in data set [6] amounted to 3.52.

As to `Cn1nc(C(F)F)c(C(=O)Nc2ccc(F)cc2-c2ccc(Cl)c(F)c2)c1Cl` [Example 98], the Efficacy in data set [1] was found to be 100%; in [4], 100%; in data set [7], 100%; in data set [11], 93%; in data set [8], 100%; in data set [12] (500 ppm), 86%. For the same compound, the Efficacy in [9] and in [10] was 100% each time. In addition, in data set [6], the logP came out at 3.74.

`CC(C)OCc1cccc(NC(=O)c2c(C(F)F)nn(C)c2F)c1` [Example 166]: the logP in data set [6] is recorded as 2.72. In [11], this compound had an Efficacy of 80%.

Regarding `CCCCCc1ccccc1NC(=O)c1c(C(F)F)nn(C)c1Cl` [Example 12], the Efficacy amounted to 100% in data set [1]; 93% in data set [13] (in vivo); 100% in data set [4]; 71% in data set [5]; 100% in data set [7]; 99% in data set [8]. Also, the Efficacy in data set [12] (250 ppm) came out at 71%; in data set [12] (500 ppm), 86%; in data set [9] it was 100%; in data set [10], 100%. The compound further showed a logP in [6] of 4.01. Also, the protection result in [12] (dose of 250 ppm and 500 ppm of active ingredient) was “at least 70%”.

As for `CC(C)CCc1ccccc1NC(=O)c1c(C(F)F)nn(C)c1F` [Example 7], the Efficacy in data set [1] is given as 100%; in data set [13] (in vivo) it was 97%; in data set [3], 95%; in [4], 100%; in data set [5], 88%; in data set [11], 80%. The Efficacy in data set [10] was determined as 100%. The compound further came in with a logP in data set [6] of 3.60.

Consider `Cn1nc(C(F)F)c(C(=O)Nc2ccc(F)cc2-c2ccc(Cl)cc2)c1Cl` [Example 83], for which the Efficacy was found to be 100% in [2]; 94% in data set [14]; 94% in [3]; 100% in data set [7]; 100% in [8]; 100% in [9]. Moreover, the logP in data set [6] came out at 3.76.

Turning to `Cn1nc(C(F)F)c(C(=O)Nc2ccccc2OC(F)(F)C(F)C(F)(F)F)c1Cl` (centres unmarked) [Example 31], the Efficacy was 98% in data set [13] (in vivo); 91% in data set [2]; 100% in [3]; 80% in [11]; 100% in [10]. This compound also returned a logP in data set [6] of 3.71.

For the compound `CC(CC(C)(C)C)c1ccccc1NC(=O)c1c(C(F)F)nn(C)c1Cl` (centres unmarked) [Example 22], the Efficacy is listed as 100% in data set [1]; 80% in data set [13] (in vivo); 100% in data set [4]; 100% in [7]; 100% in data set [8]; 86% in data set [12] (500 ppm). Also, the Efficacy in data set [9] and in data set [10] was 100% each time. For the same compound, in [6], the lipophilicity (logP) came out at 4.31.

On to `CC(C)C1C2CCC1c1c(NC(=O)c3c(C(F)F)nn(C)c3Cl)cccc12` (centres unmarked) [Example 67], for which the Efficacy in data set [1] is given as 100%; in data set [13] (in vivo), 96%; in [4] it was 100%; in data set [5], 100%; in data set [7] it was 100%; in data set [11], 90%. Further, the Efficacy in data set [8] was 99%; in data set [12] (250 ppm) it was 71%; in [12] (500 ppm), 100%; in [9], 100%; in data set [10], 100%. For the same compound, the log partition coefficient (logP) in [6] is reported as 4.55.

Turning to `Cn1nc(C(F)F)c(C(=O)Nc2ccccc2C2CC3CCC2C3)c1F` (centres unmarked) [Example 51], the Efficacy in data set [1] was determined as 71%; in [2], 96%; in data set [14] it was 93%; in data set [3], 95%; in [4] it was 100%; in data set [5], 80%. Moreover, the Efficacy in data set [7], in [8] and in data set [9] was 100% each time. This compound displayed a logP in data set [6] of 3.78.

Take `Cn1cc(C(=O)Nc2ccc(F)cc2-c2ccc(Cl)c(Cl)c2)c(C(F)F)n1` [11 from WO-2003/070705, N-(3′,4′-dichloro-5-fluorobiphenyl-2-yl)-3-(difluoromethyl)-1-methyl-1H-pyrazole-4-carboxamide, reference compound]: the Efficacy in [13] (100 ppm, rice, protective, evaluated 5 days after inoculation) stood at 20%; in data set [13] (250 ppm, rice, protective, evaluated 5 days after inoculation), 80%. In addition, the protection entry in data set [13] (dose of 100 ppm and 250 ppm of active ingredient, rice) is listed as “poor (less than 20%) protection to good (at least 70%) protection”.

As to `Cn1nc(C(F)F)c(C(=O)Nc2ccc(F)cc2-c2ccc(Cl)c(Cl)c2)c1Cl` [Example 117], the Efficacy in data set [1] is 100%; in data set [14] it was 98%; in data set [4], 100%; in data set [7], 100%; in data set [8] it was 99%; in data set [9], 100%. In data set [6], the logP was 4.04.

For `Cn1nc(C(F)F)c(C(=O)Nc2ccc(F)cc2-c2ccc(Cl)cc2)c1F` [Example 84], the Efficacy in data set [14] came to 80%; in data set [3] it was 94%; in [7] it was 99%; in data set [8], 99%; in data set [9], 100%. This compound also came in with a logP in data set [6] of 3.46.

Take `CC1CC(C)(C)c2cccc(NC(=O)c3c(C(F)F)nn(C)c3F)c21` (racemic) [Example 64]: the Efficacy in [1] is 100%; in data set [2] it was 100%; in [14], 97%; in data set [3], 95%; in [4], 100%; in data set [5], 100%. Further, the Efficacy in data set [7] came to 100%; in data set [8], 95%; in data set [12] (500 ppm), 75%; in data set [9], 99%.

`Cn1nc(C(F)F)c(C(=O)Nc2ccccc2-c2ccc(Br)cc2)c1F` [Example 139]: the Efficacy in data set [1] was determined as 100%; in data set [4], 100%; in data set [5], 100%; in [7], 100%; in data set [11] it was 95%; in [8], 100%. The Efficacy in data set [12] (500 ppm) worked out at 93%; in data set [9] it was 100%; in data set [10] it was 100%. In data set [6], the logP came out at 3.56.

In the case of `Cn1nc(C(F)F)c(C(=O)Nc2ccccc2CC[Si](C)(C)C)c1Cl` [Example 24], the Efficacy in data set [1] stood at 100%; in data set [13] (in vivo) it was 98%; in data set [4], 86%; in data set [7], 100%; in data set [8], 78%; in data set [12] (500 ppm), 86%. Besides, the Efficacy in data set [9] and in data set [10] was 100% throughout. Moreover, the logP in data set [6] is recorded as 4.36.

Turning to `Cn1nc(C(F)F)c(C(=O)Nc2ccccc2-c2ccc(Cl)c(F)c2)c1Cl` [Example 99], the Efficacy in data set [1] is recorded as 100%; in [4], 100%; in [5] it was 86%; in data set [7], 100%; in data set [11] it was 95%; in [8], 97%. For the same compound, the Efficacy in [12] (500 ppm), in data set [9] and in data set [10] was 100% in each case. In data set [6], this compound had a lipophilicity (logP) of 3.71.
